Results: patent US20080003305A1, “PROCESS AND COMPOSITIONS FOR THE DISINFECTION OF WATERS” (BROMINE COMPOUNDS LIMITED, priority 1991, published 2008)

Legend:
[1] = system: biofilm, slime and algae growth; experiment: Field experiment, cooling tower 2 (corn processing plant); conditions: BCDMH 1.50-2.26 kg/day daily
Method: • Corn processing plant. • Contained volume: 20 m^3 • Circulation rate: 300 m^3/h • pH: 7.5-8.0 • Water temperature: 36° C.-57° C.
This tower was treated with BCDMH (1.50-2.26 kg/day) daily. Due to a very high organic load in the water, growth of biofilm was very fast.

[2] = system: Pseudomonas sp.; experiment: Efficacy of biocides in the presence of anti-scale and corrosion inhibiting treatment (CWC); type: cell-based; conditions: dose 4 mg/l; pH 9.0; contact time 6 hours
Excerpt: Efficacy of Biocides in the Presence of Anti-Scale and Corrosion Inhibiting Treatment (CWC)
Stock concentration: 0.5% as Cl2
Efficacy against pseudomonas sp.

[3] = system: biofouling and growth of algae; experiment: Field experiment, cooling tower 1
Method: • Cooling tower; contained volume 1000 m^3 • Circulation rate 500 m^3/h • Scale and corrosion inhibitor: CWC: 100 mg/l
The tower was controlled on low level (0.6-1.2 kg/day) of BCDMH feed. Use of BCDMH was effective as long as make-ups were softened in ion-exchangers.
The system was shock-fed with NH4Br+NaOCl. Overall dosage: 75 liters NaOCl (10%) 12.6 kg NH4Br. The mixture was fed during 1.5 hours.
A slug dose of 25 liters NaOCl (10% as Cl2) (+4.2 kg NH4Br) was then fed to the cooling tower once in two to three days. […] A measurable residue of 0.6-0.4 ppm (as total chlorine) was measured in the water 24 and 48 hours after feeding the mixture.

[4] = system: aerob. MOs; experiment: Efficacy in domestic waste containing a high concentration of amines: aerobic MOs; type: cell-based; conditions: 60 ppm; contact time 10 minutes; N as NH3 50mg/l; pH 6.10
Method: (§1) Efficacy of a Series of Biocides in Domestic Waste Containing a High Concentration of Amines
(§2) Incubation temperature: 27° C.
(§3) Stock concentration: 0.2%

[5] = system: anaer. MOs; experiment: Efficacy in domestic waste containing a high concentration of amines: anaerobic MOs; type: cell-based; conditions: 60 ppm; contact time 10 minutes; N as NH3 50mg/l; pH 6.10
Method: as §1, §2, §3

[6] = system: MOs in starch sizing mixture; experiment: Efficacy of oxidizing and non-oxidizing biocides in a starch sizing mixture (paper industry); type: cell-based; conditions: 30 ppm active ingredient, 60° C.
Method: Efficacy of Oxidizing and Non-Oxidizing Biocides is a Starch Sizing Mixture (Paper Industry)
Efficacy was measured at 60° C.
NH4Br+NaOCl: stock concentration 0.1%.
Dosage: 30 ppm active ingredient.
Incubation temperature 60° C.

[7] = Residue as Cl2 in domestic waste containing a high concentration of amines; type: physicochemical; conditions: 60 ppm
Method: as §1, §2, §3

[8] = system: fungi; experiment: Efficacy in domestic waste containing a high concentration of amines: fungi; type: cell-based; conditions: 60 ppm; contact time 10 minutes; N as NH3 50mg/l; pH 6.10
Method: as §1, §2, §3

[9] = system: total aerobic viable counts; experiment: Efficacy of oxidizing biocides in water taken from a paper mill (thick stock of pulp slurry); type: cell-based; conditions: 15 mg/l as Cl2; 30 minutes
Method: Efficacy of Oxidizing Biocides in Water Taken from a Paper Mill (Thick Stock of Pulp Slurry)
Microorganisms were incubated at 37° C. (total aerobic viable counts).
Concentration of stock solution: 0.1% as Cl2.

| SMILES | control of daily grown films [1] | efficacy against heavy slimes covering the cooling tower [1] | Survivors in CWC (100 mg/l) [2] | Survivors in buffer [2] | prevention of biofouling and growth of algae ([3]; BCDMH 4-6 kg/day, CWC (100 mg/l of phosphonate)) | control of the tower ([3]; BCDMH feed 0.6-1.2 kg/day, make-ups softened in ion-exchangers) | Surviving MOs after 10 minutes aerob. [4] | Surviving MOs after 10 minutes anaer. [5] | Surviving MOs after time (hours): 4 ([6]; 4 hours) | Surviving MOs after time (hours): 28 ([6]; 28 hours) | Surviving MOs after time (hours): 48 ([6]; 48 hours) | Surviving MOs after time (hours): 72 ([6]; 72 hours) | Residue free as Cl2 after 10 minutes ([7]; free) | Residue (total) as Cl2 after 10 minutes ([7]; total) | Surviving MOs after 10 minutes fungi [8] [cfu/ml] | Viable counts after time (minutes): 30 [9] |
| --- | --- | --- | --- | --- | --- | --- | --- | --- | --- | --- | --- | --- | --- | --- | --- | --- |
| CC1(C)C(=O)N(Cl)C(=O)N1Br [BCDMH] | effective in controlling the daily grown films | not effective against heavy slimes | 3 × 10^5 | 0 | did not suffice to prevent biofouling and growth of algae | effective |  |  |  |  |  |  |  |  |  |  |
| N#CC(Br)(Br)C(N)=O [DBNPA] |  |  | 4 × 10^6 | 0 |  |  | 2 × 10^6 cfu/ml | 5 × 10^5 cfu/ml | 3 × 10^4 cfu/ml | 2 × 10^5 cfu/ml | 2 × 10^5 cfu/ml | 1 × 10^5 cfu/ml | 0 (0) | 0 (0) | 0 | 2 × 10^3 cfu/ml |
